Data taken from patent US9745357B2, “Peptides used for treating cancers and, in particular, chronic lymphoid leukaemia” (Centre National de la Recherche Scientifique, priority 2009, dated 2017).

Experiments:
[1] = system: cap-dependent translation (eIF4E-dependent); experiment: Effect of the peptides on translation of capped luciferase mRNA in rabbit reticulocyte lysate; assay type: biochemical; details: 50 μM peptide, compared with DMSO = 100%, FIG. 2
Protocol: The peptides having the IRS motif and the sequences of 4EBPlike type (A1WT, BPSgWT, and BP2WT) or the mutant sequences of 4EPBlike type (A1YALA, BPSgYALA, BP2YALA) are incubated in rabbit reticulocyte lysate containing capped mRNAs encoding luciferase, an enzyme of which the activity can be easily assayed. The translational activity is directly proportional to the activity of the luciferase produced. The translational activity in the presence of peptide is compared with that obtained during the addition of an equivalent volume of DMSO, considered to be 100%.
The peptides were produced, purified by HPLC (purity>95%), and freeze-dried by Thermofisher Scientific. The peptides were then dissolved at 10 mM in DMSO.
The capped mRNAs encoding Renilla luciferase (Luc R) were produced by the T7 Message Machine Kit system (Ambion) from the pGb-Eg2-410Δ2-hxG-A65 plasmid linearized with EcoRV (Legagneux V, Omilli F, Osborne HB (1995) Substrate-specific regulation of RNA deadenylation in Xenopus embryo and activated egg extracts. RNA 1: 1001-1008).
The Luc R mRNAs were translated for one hour at 30° C. in rabbit reticulocyte lysate (Flexi Rabbit Reticulocyte Lysate System, Promega) in the presence of 50 μM of peptide. The luciferase activity was determined using the Renilla luciferase assay (Promega) on the Tristar LB941 luminometer (Berthold).
A capped mRNA (having a cap at the 5′ end) encoding luciferase, a protein which can be easily assayed by measuring its activity, was translated in the presence of these various peptides in rabbit reticulocyte lysate (FIG. 2). The luciferase activity measured is directly proportional to the amount of luciferase protein produced and therefore to the cap-dependent translational activity. Since the peptides are dissolved in DMSO, it was important to test the effect of DMSO on the translation. […] The translational activity in the presence of peptide was compared with that obtained when an equal volume of DMSO is added, considered to be equal to 100%.

[2] = system: B lymphocytes from patients suffering from chronic lymphoid leukemia (CLL); details: for effect on percentage cell survival / cell effect CLL 40 (survival): 40 μM peptide; for effect on percentage cell survival: 4 H and 24 H, FIG. 3; for cell effect CLL 40 (survival): 4 hours of culture, cells not labeled with annexin or propidium iodide; for effect of the peptide on cell mortality, in words (relative to A1 WT IRS): 40 μM, 4 hours, FIG. 9; for action of the peptide on cell survival, in words, cell type not given: Example 6 (CLL cells, control T lymphocytes, Jok cells)
Protocol: Peripheral blood B lymphocytes taken from patients suffering from CLL and then purified on a Ficoll cushion and placed in culture are incubated in the presence of […] of the peptides described for FIG. 2. The percentage cell survival after 4 hours (gray column) or 24 hours (white column) of culture corresponds to the percentage of cells labeled neither with annexin nor with propidium iodide, evaluated by flow cytometry.
The CLL B lymphocytes were obtained from peripheral blood of 18 different patients suffering from chronic lymphoid leukemia. […] The samples were taken in the Brest hospital center, in the hematology department. The blood samples were taken after informing the patients and obtaining their informed consent.
The lymphocytes, mononuclear cells, were isolated from the heparinized peripheral blood samples by Ficoll-Hypaque (LSM 1077 lymphocyte, euro-bio) centrifugation. The red blood cells were lyzed by incubation for 10 min in VersaLyse Lysing Solution (Beckman Coulter). The mononuclear cells are obtained after 2 washes in culture medium (RPMI1640, Gibco BRL).
(§1) The cells were cultured in a culture medium composed either of RPMI 1640 (B lymphocytes) or of DMEM (COS7, HCT116, HGT1, 293, HeLa) containing 10% of FCS (fetal calf serum, 1% of penicillin-streptomycin and 1% of glutamine, Gibco BRL). The cells are distributed in a 24-well plate and cultured at 37° C. in a humid atmosphere under 5% CO2.
(§2) 400 μl of cell suspension (1×10^6 cells/ml) per well were treated for 4 h or 24 h with various concentrations of peptides. The test for activity of the peptides in the presence of emetine (FIG. 6) was carried out by preincubating the cells with 100 μM of emetine for one hour before the addition of peptide.
(§3) After the cells have been washed with PBS, they were analyzed using the Annexin V-FITC IP system according to the supplier's recommendations (Beckman Coulter).
The cells taken from patients suffering from chronic lymphoid leukemia were purified on a Ficoll cushion. […] The cells were placed in culture in RPMI medium in the presence of 10% FCS (fetal calf serum). The peptides were added directly to the culture medium. These peptides comprise the IRS sequence (the amino acid sequence of which is RYIRS) which is known to allow the penetration of peptides into B lymphocytes in culture (Dong et al., 2005). […] The cells which survive the treatment are those which are labeled neither with annexin nor with propidium iodide.

[3] = system: Jok cells (cell line derived from B lymphocytes); experiment: Cell survival of Jok cells, annexin/propidium iodide flow cytometry; assay type: cell-based, human; details: for cell effect Jok 20 (survival): 20 μM peptide; for cell effect Jok 20 (survival) / cell effect Jok 40 (survival): 4 hours of culture, cells not labeled with annexin or propidium iodide; for cell effect Jok 40 (survival): 40 μM peptide; for effect of the peptide on cell mortality, in words (relative to A1 WT IRS): concentration not given (20 or 40 μM), 4 hours, FIG. 9
Protocol: The cells are treated as indicated for FIG. 7, with the CLL cells, control T lymphocytes and Jok lymphocytes, which are incubated with the A1 WT IRS peptide and derivatives thereof described in table 1. The Jok cells were incubated either with 20 μM (JOK 20) or with 40 μM (JOK 40) of each of the peptides. In the interests of simplifying the legend, the A1 WT IRS peptide is referred to as “WT”. Likewise, the derivatives thereof are referred to by the name of the mutations (A1 K3I IRS is referred to as “K3I”, for example).
as §1, §2, §3
The peptides were tested on B lymphocytes from patients suffering from chronic lymphoid leukemia, control T lymphocytes, or Jok cells (cell line derived from B lymphocytes). The experiment was repeated three times for each type of cell tested.

[4] = system: control T lymphocytes (patients suffering from hemochromatosis); experiment: Cell survival of control T lymphocytes, annexin/propidium iodide flow cytometry; assay type: cell-based, human; details: 40 μM peptide, 4 hours of culture, cells not labeled with annexin or propidium iodide
Protocol: FIG. 7: Activity of the A1WT peptide on cells of lymphocytic, lymphoid, gastric, colonic or renal origin The cells are prepared and placed in culture (see Materials and Methods) and then incubated for 4 H with the A1WT or A1 YALA peptide. The percentage cell survival corresponds to the percentage of cells labeled neither with annexin nor with propidium iodide, evaluated by flow cytometry. The names of the pathological conditions from which the patients from whom the samples are taken are suffering are indicated under the figure. The control T (L.T.) and B (L.B.) lymphocytes are taken from patients suffering from a disease not related to a lymphocytic pathological condition (hemochromatosis).
The control B lymphocytes and T lymphocytes originate from peripheral blood samples from patients suffering from hemochromatosis, provided by the CTS transfusion center in Brest. The B and T lymphocytes were isolated using the Rosett-Sep kit (Stemcell Technologies) according to the supplier's recommendations.
as §1, §2, §3

[5] = system: control T lymphocytes (patients suffering from hemochromatosis); experiment: as above; assay type: cell-based, human; details: 40 μM, 4 hours; FIG. 9

Sequence	inhibition of translation (luciferase activity) [1]	inhibition of translation (luciferase activity) ([1]; listed as BP2)	effect on percentage cell survival [2]	cell effect CLL 40 (survival) [2]	effect of the peptide on cell mortality, in words (relative to A1 WT IRS) [2]	action of the peptide on cell survival, in words, cell type not given [2]	cell effect Jok 20 (survival) [3]	cell effect Jok 40 (survival) [3]	effect of the peptide on cell mortality, in words (relative to A1 WT IRS) [3]	cell effect LT 40 (survival) [4]	effect of the peptide on cell mortality, in words (relative to A1 WT IRS) [5]
RIIADRKFAADRRYIRS [BP2 YALA IRS, YALA mutant control of BP2 WT IRS]	does not cause any inhibition of the translation										
RIIYDRKFLLDRRYIRS [BP2 WT IRS, reference compound]	strong inhibition of the translation	effectively inhibits eIF4E-dependent translation	the percentage survival did not decrease	− (−: survival >50%)	has no effect	has no effect on cell survival	− (−: survival >50%)	− (−: survival >50%)	has no effect		
RRKAGRDFAARFRYIRS [A1 YALA IRS, reference compound]	does not inhibit the translation		has no effect	− (−: survival >50%)		has no effect	− (−: survival >50%)	− (−: survival >50%)		− (−: survival >50%)	
RRKYGKDFLLRFRYIRS [A1 R6K IRS]				+ (+: survival <25%)	partially decreases the action		+/− (+/−: survival between 25 and 50%)	+ (+: survival <25%)	partially decreases the action	+/− (+/−: survival between 25 and 50%)	partially decreases the action
RRKYGRAFLLFRFYIRS [A1 D7A IRS]				+ (+: survival <25%)	does not modify the action		+ (+: survival <25%)	+ (+: survival <25%)		+ (+: survival <25%)	does not modify the action
RRKYGRDFLLRKRYIRS [A1 F12K IRS]				− (−: survival >50%)	completely abolishes the action		− (−: survival >50%)	− (−: survival >50%)	completely abolishes the action	− (−: survival >50%)	completely abolishes the action
RRKYGRDFLLRWRYIRS [A1 F12W IRS]				+ (+: survival <25%)	does not modify the action		+ (+: survival <25%)	+/− (+/−: survival between 25 and 50%)	does not modify the action	+ (+: survival <25%)	does not modify the action
RRKYGREFLLRFRYIRS [A1 D7E IRS]				+ (+: survival <25%)	does not modify the action		+ (+: survival <25%)	+ (+: survival <25%)	its effect is potentiated	+ (+: survival <25%)	does not modify the action
RRKYSRDFLLRFRYIRS [A1 G5S IRS]				+ (+: survival <25%)	slightly increases the effect		+ (+: survival <25%)	+ (+: survival <25%)	slightly increases the effect	+ (+: survival <25%)	slightly increases the effect
RRRYGRDFLLRFRYIRS [A1 K3R IRS]				+ (+: survival <25%)	does not modify the effect		+ (+: survival <25%)	+ (+: survival <25%)	does not modify the effect	+ (+: survival <25%)	does not modify the effect
